Measurements taken from the supplement of paper PMC4862054.

How the values were obtained:
Assay in all cases: normalised viability (% of control), CellTiter-Blue; higher = more viable cells (about 100 = DMSO control)
Settings in all cases: incubation time: 72 h
CAL-148 [1] = test system: CAL-148
Procedure, shortened: (§1)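 Each value is normalised viability at a single listed concentration of the series. Breast cancer cell lines in 384-well plates were incubated 72 h with compound and read by CellTiter-Blue fluorescence at 560/590 nm, with vehicle set to 100 and a positive kill control to 0 on every plate.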

CAL-51 [2] = test system: CAL-51
Procedure, shortened: as §1

SK-BR-3 [3] = test system: SK-BR-3
Procedure, shortened: as §1

CAL-85-1 [4] = test system: CAL-85-1
Procedure, shortened: as §1

MDA-MB-436 = test system: MDA-MB-436
Procedure, shortened: as §1

CAL-120 = test system: CAL-120
Procedure, shortened: as §1

BT-549 = test system: BT-549
Procedure, shortened: as §1

MDA-MB-453 [5] = test system: MDA-MB-453
Procedure, shortened: as §1

HDQ-P1 = test system: HDQ-P1
Procedure, shortened: as §1

MFM-223 [6] = test system: MFM-223
Procedure, shortened: as §1

HCC1599 [7] = test system: HCC1599
Procedure, shortened: as §1

MDA-MB-468 [8] = test system: MDA-MB-468
Procedure, shortened: as §1

MDA-MB-231 [9] = test system: MDA-MB-231
Procedure, shortened: as §1

Hs578T [10] = test system: Hs578T
Procedure, shortened: as §1

BT-474 [11] = test system: BT-474
Procedure, shortened: as §1

HCC1937 = test system: HCC1937
Procedure, shortened: as §1

DU-4475 [12] = test system: DU-4475
Procedure, shortened: as §1

CAL-148 [13] = test system: CAL-148; remark: listed apart in the source
Procedure, shortened: as §1

CAL-51 [14] = test system: CAL-51; remark: listed apart in the source
Procedure, shortened: as §1

SK-BR-3 [15] = test system: SK-BR-3; remark: listed apart in the source
Procedure, shortened: as §1

CAL-85-1 [16] = test system: CAL-85-1; remark: listed apart in the source
Procedure, shortened: as §1

MDA-MB-453 [17] = test system: MDA-MB-453; remark: listed apart in the source
Procedure, shortened: as §1

MFM-223 [18] = test system: MFM-223; remark: listed apart in the source
Procedure, shortened: as §1

HCC1599 [19] = test system: HCC1599; remark: listed apart in the source
Procedure, shortened: as §1

MDA-MB-468 [20] = test system: MDA-MB-468; remark: listed apart in the source
Procedure, shortened: as §1

MDA-MB-231 [21] = test system: MDA-MB-231; remark: listed apart in the source
Procedure, shortened: as §1

Hs578T [22] = test system: Hs578T; remark: listed apart in the source
Procedure, shortened: as §1

BT-474 [23] = test system: BT-474; remark: listed apart in the source
Procedure, shortened: as §1

DU-4475 [24] = test system: DU-4475; remark: listed apart in the source
Procedure, shortened: as §1

C=C(c1ccc(C(=O)O)cc1)c1cc2c(cc1C)C(C)(C)CCC2(C)C [Bexarotene]
Settings	normalised viability [%]
BT-474 [11], 100 nM	102
BT-474 [23], 10 nM	103
BT-474 [23], 1000 nM	95.7
BT-474 [23], 10000 nM	97.7
BT-549, 100 nM	73.2
CAL-51 [2], 10 nM	84.7
CAL-51 [14], 3 nM	82
CAL-51 [14], 30 nM	88.7
CAL-51 [14], 100 nM	88.5
CAL-85-1 [4], 10 nM	97
CAL-85-1 [16], 3 nM	94.9
CAL-85-1 [16], 30 nM	91.6
CAL-85-1 [16], 100 nM	92
CAL-120, 100 nM	104
CAL-148 [1], 10 nM	101
CAL-148 [13], 3 nM	110
CAL-148 [13], 30 nM	92.7
CAL-148 [13], 100 nM	99.8
DU-4475 [12], 10 nM	110
DU-4475 [24], 3 nM	98.7
DU-4475 [24], 30 nM	102
DU-4475 [24], 100 nM	103
HCC1599 [7], 100 nM	88
HCC1599 [19], 10 nM	81.2
HCC1599 [19], 1000 nM	72.2
HCC1599 [19], 10000 nM	82.1
HCC1937, 100 nM	93.5
HDQ-P1, 10 nM	86.4
Hs578T [10], 100 nM	70.7
Hs578T [22], 10 nM	99
Hs578T [22], 1000 nM	105
Hs578T [22], 10000 nM	75.3
MDA-MB-231 [9], 100 nM	80.5
MDA-MB-231 [21], 10 nM	91.2
MDA-MB-231 [21], 1000 nM	86.5
MDA-MB-231 [21], 10000 nM	105
MDA-MB-436, 100 nM	77.2
MDA-MB-453 [5], 10 nM	92
MDA-MB-453 [17], 3 nM	91
MDA-MB-453 [17], 30 nM	91.3
MDA-MB-453 [17], 100 nM	74.5
MDA-MB-468 [8], 100 nM	108
MDA-MB-468 [20], 10 nM	108
MDA-MB-468 [20], 1000 nM	100
MDA-MB-468 [20], 10000 nM	110
MFM-223 [6], 100 nM	87.4
MFM-223 [18], 10 nM	101
MFM-223 [18], 1000 nM	103
MFM-223 [18], 10000 nM	96.5
SK-BR-3 [3], 100 nM	82.6
SK-BR-3 [15], 10 nM	100
SK-BR-3 [15], 1000 nM	89.8
SK-BR-3 [15], 10000 nM	83.1

CC(=O)Nc1ccc(C(=O)Nc2ccccc2N)cc1 [CI-994]
Settings	normalised viability [%]
BT-474 [11], 10 nM	106
BT-474 [23], 1 nM	104
BT-474 [23], 100 nM	117
BT-474 [23], 1000 nM	97.4
BT-549, 10 nM	96.9
CAL-51 [2], 1 nM	94
CAL-51 [14], 0.3 nM	94.6
CAL-51 [14], 3 nM	94.6
CAL-51 [14], 10 nM	96.7
CAL-85-1 [4], 1 nM	91.7
CAL-85-1 [16], 0.3 nM	104
CAL-85-1 [16], 3 nM	104
CAL-85-1 [16], 10 nM	101
CAL-120, 10 nM	114
CAL-148 [1], 1 nM	98.1
CAL-148 [13], 0.3 nM	104
CAL-148 [13], 3 nM	93.9
CAL-148 [13], 10 nM	101
DU-4475 [12], 1 nM	93.9
DU-4475 [24], 0.3 nM	86
DU-4475 [24], 3 nM	81
DU-4475 [24], 10 nM	107
HCC1599 [7], 10 nM	108
HCC1599 [19], 1 nM	104
HCC1599 [19], 100 nM	99.8
HCC1599 [19], 1000 nM	84.8
HCC1937, 10 nM	108
HDQ-P1, 1 nM	113
Hs578T [10], 10 nM	97.8
Hs578T [22], 1 nM	119
Hs578T [22], 100 nM	115
Hs578T [22], 1000 nM	92.5
MDA-MB-231 [9], 10 nM	103
MDA-MB-231 [21], 1 nM	104
MDA-MB-231 [21], 100 nM	101
MDA-MB-231 [21], 1000 nM	115
MDA-MB-436, 10 nM	94.2
MDA-MB-453 [5], 1 nM	113
MDA-MB-453 [17], 0.3 nM	100
MDA-MB-453 [17], 3 nM	100
MDA-MB-453 [17], 10 nM	105
MDA-MB-468 [8], 10 nM	108
MDA-MB-468 [20], 1 nM	99.6
MDA-MB-468 [20], 100 nM	115
MDA-MB-468 [20], 1000 nM	100
MFM-223 [6], 10 nM	97.5
MFM-223 [18], 1 nM	107
MFM-223 [18], 100 nM	109
MFM-223 [18], 1000 nM	102
SK-BR-3 [3], 10 nM	78.2
SK-BR-3 [15], 1 nM	103
SK-BR-3 [15], 100 nM	97.8
SK-BR-3 [15], 1000 nM	99.4
